Results reported in patent publication US9382306B2, “Octapeptide compounds derived from somatostatin and the therapeutic use thereof” (IPSEN PHARMA S.A.S., priority 2008, dated 2016).
Values joined by “and” are separate entries in the source; they are usually repeats but may differ in a detail not shown here. Equal values may be shown once. Bridge positions count the residues as written; N and C are the ends. Square brackets hold non-standard residues; d marks the D form. Peptide text beside a SMILES is read from it. ξ: configuration not given here. d2Nal = N[C@H](Cc1ccc2ccccc2c1)C(=O)O; Thr(3ξ) = CC(O)[C@H](N)C(=O)O

Legend:
[1] = target: T1, somatostatin receptors sub-type 2 (Homo sapiens, UniProt P30874); assay: Affinity for somatostatin receptors: inhibition of [125I-Tyr11]SRIF-14 binding to membranes of transfected CHO-K1 cells; conditions: competitive inhibition of [125I-Tyr11]SRIF-14 binding, 37° C.
T1 construct: expressed in transfected cells; membrane preparations
T1 sequence (P30874 whole entry): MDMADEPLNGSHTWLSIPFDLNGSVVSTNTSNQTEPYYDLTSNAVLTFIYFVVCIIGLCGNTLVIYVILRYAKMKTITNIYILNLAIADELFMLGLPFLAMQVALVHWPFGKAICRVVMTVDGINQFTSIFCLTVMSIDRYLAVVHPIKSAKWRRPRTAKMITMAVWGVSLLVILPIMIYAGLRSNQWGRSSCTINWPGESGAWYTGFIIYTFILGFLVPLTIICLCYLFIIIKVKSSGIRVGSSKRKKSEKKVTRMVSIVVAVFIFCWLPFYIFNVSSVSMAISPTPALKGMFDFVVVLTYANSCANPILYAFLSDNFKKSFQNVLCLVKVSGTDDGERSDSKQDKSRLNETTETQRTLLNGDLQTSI

[2] = Self-assembly study: putting peptides in solution in water, macroscopic, ATR-FTIR, TEM and SAXS analysis; assay type: physicochemical; conditions: 3 to 15% by mass of peptide in water; form and diameter of the self-assembled structure, or soluble / insoluble

SMILES	Ki [1] [nM]	Assembly [2]
CC(C)[C@@H]1NC(=O)[C@H](CCCCN)NC(=O)[C@@H](Cc2c[nH]cn2)NC(=O)[C@H](Cc2ccc(O)cc2)NC(=O)[C@@H](NC(=O)[C@H](N)Cc2ccc3ccccc3c2)CSSC[C@@H](C(=O)N[C@H](C(N)=O)C(C)O)NC1=O (stereo partly drawn) [Example 3, H-D-2-Nal^1-cyclo(Cys^2-Tyr^3-D-His^4-Lys^5-Val^6-Cys^7)-Thr^8-NH2.2 CH3COOH] (H-[d2Nal]CY[dH]KVC[Thr(3ξ)]-NH2; disulfide 2-7)	≤ 700	monodisperse peptide nanotubes and 9.3 nm monodisperse nanotube
CC(C)[C@@H]1NC(=O)[C@H](CCCCN)NC(=O)[C@@H](C)NC(=O)[C@H](Cc2ccc(O)cc2)NC(=O)[C@@H](NC(=O)[C@H](N)Cc2ccc3ccccc3c2)CSSC[C@@H](C(=O)N[C@H](C(N)=O)C(C)O)NC1=O (stereo partly drawn) [Example 4, H-D-2-Nal^1-cyclo(Cys^2Tyr^3-D-Ala^4-Lys^5-Val^6Cys^7)-Thr^8-NH2.2 CH3COOH] (H-[d2Nal]CY[dA]KVC[Thr(3ξ)]-NH2; disulfide 2-7)	≤ 5000	self-assembled fibres
CC(C)[C@@H]1NC(=O)[C@H](CCCCN)NC(=O)[C@@H](Cc2cccc3ccccc23)NC(=O)[C@H](Cc2ccc(O)cc2)NC(=O)[C@@H](NC(=O)[C@H](N)Cc2ccc3ccccc3c2)CSSC[C@@H](C(=O)N[C@H](C(N)=O)C(C)O)NC1=O (stereo partly drawn) [Example 6, H-D-2-Nal^1-cyclo(Cys^2Tyr^3-13-(1-naphthyl)-D-Ala^4-Lys^5-Val^6-Cys^7)-Thr^8-NH2.2 CH3COOH]	≤ 5	monodisperse peptide nanotubes and 35 nm monodisperse nanotube
